# Reference: US20240131032A1, “AN ACTIVITY-GUIDED MAP OF ELECTROPHILE-CYSTEINE INTERACTIONS IN PRIMARY HUMAN IMMUNE CELLS” (The Scripps Research Institute, priority 2019, published 2024)
# Experiments:
# BIRC3 = biological target: T1, BIRC3 (Homo sapiens, UniProt Q13489); assay: isoTOP-ABPP and TMT-ABPP cysteine engagement, BIRC3; format: binding
# T1 construct: endogenous in cells; host or cells: primary human T cells
# Description: Activated or expanded T cells were re-suspended in RPMI media supplemented with 10% FBS, L-glutamine (2 mM), penicillin (100 U/mL), and streptomycin (100 μg/mL) at 2×10^6 cells/mL. The compounds were added to cells as 1000×DMSO stocks and mixed well with the media by pipetting up and down after addition. The cells were kept at 37° C. in 5% CO2 containing incubators for 3 h (or otherwise specified times), then pelleted by centrifugation (524 g, 5 min, 4° C.), washed with cold PBS (10 mL) and transferred to Eppendorf tubes (1 mL PBS). The cells were pelleted again (524 g, 5 min, 4° C.), flash-frozen, and kept at −80° C. until further analysis.
# Activated or expanded primary human T cells were re-suspended in RPMI (1×10^6 cells/mL) containing 10% fetal bovine serum (FBS), penicillin (100 U/mL), streptomycin ([…]), and L-glutamine (2 mM). […] The resulting proteomes were analyzed by competitive isotopic Tandem Orthogonal Proteolysis Activity-Based Protein Profiling (isoTOP-ABPP). […]
# The heavy/light isoTOP-ABPP ratios (R values) for each unique peptide (DMSO/compound treated) were quantified with in-house CIMAGE software (Weerapana et al., 2010) using default parameters (3 MS1 acquisitions per peak and signal to noise threshold set to 2.5). Site-specific engagement of cysteine residues was assessed by blockade of IA-alkyne probe labeling. […]
# BIRC2 and BIRC3 mRNA = assay: mRNA content for BIRC2 and BIRC3 in T cells (qPCR); format: cell-based, human; details: EV-3 10 μM, 24 h
# Description: All treatments were done with T cells for 24 hours.
# Total RNA from compound or DMSO treated T cells (1.5×10^7 cells/group) was isolated using RNeasy Mini Kit (Qiagen) according to manufacturer's protocol. RNA concentration was determined using NanoDrop and adjusted to 1 μg RNA in 15 μL RNAse free water for the reverse transcription reaction. cDNA amplification was done using iScript Reverse Transcription Supermix kit (BioRad) according to manufacturer's instructions. The following PCR settings were used for the reverse transcription reaction: 5 min at 25° C. (priming), 20 min at 46° C. (Reverse transcription), 1 min at 95° C. (RT inactivation), hold at 4° C. qPCR analysis was performed on ABI Real Time PCR System (Applied Biosystems) with the SYBR green Mastermix (Applied Biosystems). Relative gene expression was normalized to actin.
# T1 sequence (Q13489 whole entry): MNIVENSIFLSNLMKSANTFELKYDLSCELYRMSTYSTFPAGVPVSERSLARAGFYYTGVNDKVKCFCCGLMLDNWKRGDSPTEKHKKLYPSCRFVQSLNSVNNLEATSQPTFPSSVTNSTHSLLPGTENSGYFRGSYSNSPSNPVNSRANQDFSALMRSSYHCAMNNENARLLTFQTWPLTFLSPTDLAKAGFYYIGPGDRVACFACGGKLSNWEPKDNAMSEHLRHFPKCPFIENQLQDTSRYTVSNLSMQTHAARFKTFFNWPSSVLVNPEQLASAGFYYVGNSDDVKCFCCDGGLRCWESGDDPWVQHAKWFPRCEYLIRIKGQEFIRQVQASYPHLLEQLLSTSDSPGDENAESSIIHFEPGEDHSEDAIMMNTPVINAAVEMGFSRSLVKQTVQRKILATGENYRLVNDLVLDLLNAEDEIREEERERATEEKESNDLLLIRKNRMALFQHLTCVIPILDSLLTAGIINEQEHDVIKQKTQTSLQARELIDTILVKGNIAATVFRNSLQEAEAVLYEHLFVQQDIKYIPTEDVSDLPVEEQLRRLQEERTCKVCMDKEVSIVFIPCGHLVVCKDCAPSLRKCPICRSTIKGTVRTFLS
smiles,measurement,setting,value
O=C(CCl)N1CCN(S(=O)(=O)c2ccc(-c3ccncc3)cc2)CC1 [EV-3],engagement of C28 of BIRC3,BIRC3,unique target
same,mRNA content for BIRC2 or BIRC3,BIRC2 and BIRC3 mRNA,minimal changes
